The source of these data is patent publication US20120225834A1, “OCULAR IONTOPHORESIS OF CHARGED MICELLES CONTAINING BIOACTIVE AGENTS” (EYEGATE PHARMACEUTICALS, INC., priority 2009, published 2012).

Structures are written as SMILES. Read-outs that look alike come from different tables or passages of the source.

A short description of this data set: Solubilization of sparingly soluble compounds using quaternary ammonium cationic surfactants (dissolved concentration by HPLC). Type of data set: physicochemical. How it is done: Aqueous solubility of dexamethsone, a corticosteroid, and natamycin, an antifungal agent, was increased by using quaternary ammonium cationic surfactants cetyltrimethylammonium bromide (CTAB), ditetradecyldimethylammonium bromide (TMAB), and dioctadecyldimethylammonium chloride (OMAC). Stock solutions of surfactants were prepared by adding water to the surfactant and mixing under low shear at room temperature. The stock solution of CTAB and TMAB was prepared at 10 mg/mL and 20 mg/mL in WFI (water for injection) whereas the stock solution of OMAC was only prepared at 10 mg/mL due to gel formation at 20 mg/mL. Surfactant solutions with different concentrations were then prepared by diluting the corresponding stock solution with WFI.
Dexamethasone (or natamycin) was added to each surfactant solution in such quantity to precipitate. The mixture was sonicated for one hour in a sonication water tank and then stirred overnight.
Dissolved dexamethasone (or natamycin) concentration was analyzed on HPLC following two different procedures: (1) An aliquot of the mixture was centrifuged at 10 k RPM (9.3 k×g relative gravitational force) for 30 min. Clear supernatant was then analyzed on HPLC; (2) An aliquot of the mixture was filtered through a syringe filter (Acrodisc®, Supor membrane, 0.2 micrometers), and then analyzed on HPLC. […]

On to `C[C@@H]1C/C=C/C=C/C=C/C=C/[C@H](O[C@@H]2O[C@H](C)[C@@H](O)[C@H](N)[C@@H]2O)C[C@@H]2O[C@](O)(C[C@@H](O)C[C@H]3O[C@@H]3/C=C/C(=O)O1)C[C@H](O)[C@H]2C(=O)O` [natamycin], for which the Aqueous solubility entry was “increased”.
For the compound `C[C@@H]1C[C@H]2[C@@H]3CCC4=CC(=O)C=C[C@]4(C)[C@@]3(F)[C@@H](O)C[C@]2(C)[C@@]1(O)C(=O)CO` [dexamethsone, dexamethasone], the Aqueous solubility result (in aqueous solutions of quaternary ammonium cationic surfactants CTAB, TMAB and OMAC in WFI, sonicated one hour, stirred overnight, HPLC after centrifugation or 0.2 micrometer filtration) is “increased”.
